For series [1] the following is noted: 25 μM; Table 9.
In series [2] the test system is HeLa. Description: cells. Type of series: cell-based, human. Conditions: hela cells.
Series [3] addresses human telomerase (Homo sapiens, UniProt O14746). Put plainly: Telomerase inhibition, primer extension assay in HeLa cell extract. The following applies: for inhibition at 25 µM: read-out: % Inhibition of telomerase. Type of series: biochemical.
Series [4] has as its system MCF-7. Description: Cytotoxicity (MTT) MCF-7. It counts as cell-based, human. Conditions: mcf-7 cells. The procedure:
(§1) The cells were cultured in the presence of the porphyrins incubator for 4-7 days and then treated with 3-(4,5-dimethylthiazol-2-yl)-2,5-diphenyl-tetrazolium bromide (MTT). Formazan concentration was quantitated by absorbance at 570 nm.

Series [5] relates to LNCap. Put plainly: Cytotoxicity (MTT) LNCap. Conditions: lncap cells. Type of series: cell-based, human. Here is the method: as §1
Series [6] concerns DU145. Put plainly: Cytotoxicity (MTT) DU145. It counts as cell-based, human. Conditions: du145 cells. Here is the method:
as §1

Series [7] deals with sea urchin embryos. Conditions: in vivo. The procedure:
Lytechinus pictus sea urchins were purchased from Marinus Inc. (Long Beach, Calif.) and maintained at 15° C. in refrigerated aquaria containing Instant Ocean synthetic sea water, following a described procedure [Vafa, 1996 #300]. For polyspermic fertilization, 0.01 vol freshly prepared stock sperm suspension (25 ml ASW containing 2 ml undiluted semen) was added to the eggs suspended for 10 min at 1% concentration in ASW adjusted to pH 9.0 with NH4 OH and stirred at 60 rpm with motor-driven Teflon paddles. Ten min after insemination, the fertilized eggs were allowed to settle, and the supernatant ASW containing sperm was aspirated and replaced with fresh ASW. The embryos were cultured at 18° C. Twenty min after fertilization TMPyP4 or TMPyP4.Pt^II (100 μM final concentration) was added from a concentrated stock in DMSO to 1% embryo suspensions. Equivalent amounts of DMSO (final 0.1%) were added to control egg suspensions. At measured times after insemination, the embryos were pelleted by centrifugation and resuspended in Carnoy's fixative (ethanol:acetic acid, 3:1) for at least 1 hr. After fixation the embryos were pelleted and resuspended successively in: (1) ethanol:acetic acid, 1:1 for 5-15 min: (2) 45% acetic acid for 5-15 min; (3) room temperature 1 N HCl for 1-2 min: (4) 60° C. 1 N HCl for 7-8 min; (5) room temperature 1 N HCl for 1-2 min; (6) Schiffs reagent for 90-120 min; and (7) 45% acetic acid before affixing the embryos to microscope slides. Embryo samples were placed on microscope slides, covered with coverslips, and frozen on a bed of dry ice. After at least 30 min, the coverslips were popped off using a razor blade and the slides were immediately plunged into Coplin jars containing 95% ethanol for 5-10 min. The slides were then transferred to Coplin jars containing 100% ethanol for 3-5 min. After removing the slides and allowing them to air dry, the embryos were mounted with one drop Permount (Fisher) under a coverglass.
The inventors examined whether treatment of the embryos with G-quadroplex interactive agents can cause observable chromosomal abnormalities. A time course of the embryo development was followed in the presence of 10 μM and 100 μM concentrations of TMPyP4 or TMPyP4.Pt^II.

Series [8] deals with telomere length in MCF7 cells. Description: Telomere length analysis in MCF7 cells. It counts as cell-based, human. Here is the method:
DNA was extracted from a minimum of 5×10^6 cells by SDS, proteinase K treatment, then purified and quantitated as previously described (Strahl and Blackburn, 1991). Approximately 1 μg of total DNA was digested with Mse I; the digested DNA was size fractionated by agarose gel electrophoresis and Southern blotted. The blots were hybridized with a ^32 P-labeled 0.5 kb PCR™ DNA fragments composed of the telomere repeat d(TTAGGG), which served as a probe for the telomeres. The hybridized probe was detected by autoradiography and each lane on the film was analyzed by phosphoimage analysis (Molecular Dynamics).
Telomeres shorten at an average rate of 65-100 base pairs per cell division (Counter et al., 1992). To observe a significant effect of an agent on telomere length, e.g., shortening the telomeres by >1 kilobase in MCF7 cells (5.7 kbases), a minimum of […] population doubling times will be required.

The subject of series [9] is MCF-7M. Type of series: cell-based, human. The following applies: mcf-7m cells. The procedure: (§2) Cytotoxicity of the compounds to human breast cancer cells in vitro was assessed using a panel of cell lines representing estrogen receptor-positive (BT20, MCF-7m), and a pair of estrogen receptor-negative, transformed breast (11S578t) and normal breast (HS578Bst) cells.
For series [10], the system named is MDA-231. Description: Cytotoxicity (MTT) MDA-231. It counts as cell-based, human. Conditions: mda-231 cells. The procedure: as §1
The test system of series [11] is NHLF. Put plainly: Cytotoxicity (MTT) NHLF normal lung fibroblasts. Type of series: cell-based. The following applies: human, nhlf cells. The procedure:
as §1
All porphyrins were obtained from Midcentury, Posen, Ill. The experimental work with porphyrins was performed under minimum exposure to light. All human tumor cell lines and normal human breast cells Hs578Bst were purchased from the American Type Culture Collection. Normal human lung fibroblasts NHLF were obtained from Clonetics Corporation. The cell lines were grown according to the suppliers' instructions.

Series [12] has as its system Daudi. Description: cells. It counts as cell-based, human. The following applies: daudi cells. The procedure:
as §1

In series [13] the test system is BT-20. Description: Cytotoxicity (MTT) BT-20. It counts as cell-based, human. The following applies: bt-20 cells. The procedure:
as §1

In series [14] the test system is Raji. Put plainly: Cytotoxicity (MTT) Raji. Type of series: cell-based, human. Conditions: raji cells. The procedure:
as §1

In series [15] the test system is HS578t. It counts as cell-based, human. The following applies: hs578t cells. Here is the method: as §2
(§3) Thy: tritiated […] assay (n = 3 ± SEM)

For series [16], the system named is MCF-7M. It counts as cell-based, human. The following applies: mcf-7m cells. Here is the method:
as §2, §3
The source holds these as a separate data set.

The test system of series [17] is MCF7 human breast carcinoma cells (telomerase activity). Put plainly: Telomerase activity in intact MCF7 cells cultured with porphyrin. Type of series: cell-based. The procedure: To determine the long-term effects of TMPyP4 on whole cells, MCF7 breast carcinoma cells were cultured in the continuous presence of 1, 10, and 100 μM TMPyP4. The porphyrin solution was freshly added to the medium from the concentrated stock at each passage of the cells (every 3-4 days). On days 4, 8, and 15, the cells were lysed and the telomerase activity was measured in the extracts.
Breast cancer cells MCF-7m, BT20, HS578t and normal HS578Bst cells were grown in culture in T75 flasks (10^6 cells/flask). […] The cells were harvested and freeze-thawed and the extracts used to measure telomerase activity using the Dynabeads method.

Series [18] relates to PC3. Description: Cytotoxicity (MTT) PC3. Conditions: pc3 cells. Type of series: cell-based, human. Here is the method:
as §1

The mark [19] stands for this setting: Table 15, concentration fixed at 25 μM.

The source of these data is patent US6087493A, “Porphyrin compounds as telomerase inhibitors” (Regents of the University of Texas System, priority 1998, dated 2000).

Where two headings read alike, the source gives them in different places.

For orientation: CC50 means the concentration giving 50% cytotoxicity. High values mean lower toxicity to the cells, low ones greater toxicity to the cells. As a reminder, the inhibition is the percentage by which the read-out fell short of the control.

Chain of human telomerase (O14746 whole entry): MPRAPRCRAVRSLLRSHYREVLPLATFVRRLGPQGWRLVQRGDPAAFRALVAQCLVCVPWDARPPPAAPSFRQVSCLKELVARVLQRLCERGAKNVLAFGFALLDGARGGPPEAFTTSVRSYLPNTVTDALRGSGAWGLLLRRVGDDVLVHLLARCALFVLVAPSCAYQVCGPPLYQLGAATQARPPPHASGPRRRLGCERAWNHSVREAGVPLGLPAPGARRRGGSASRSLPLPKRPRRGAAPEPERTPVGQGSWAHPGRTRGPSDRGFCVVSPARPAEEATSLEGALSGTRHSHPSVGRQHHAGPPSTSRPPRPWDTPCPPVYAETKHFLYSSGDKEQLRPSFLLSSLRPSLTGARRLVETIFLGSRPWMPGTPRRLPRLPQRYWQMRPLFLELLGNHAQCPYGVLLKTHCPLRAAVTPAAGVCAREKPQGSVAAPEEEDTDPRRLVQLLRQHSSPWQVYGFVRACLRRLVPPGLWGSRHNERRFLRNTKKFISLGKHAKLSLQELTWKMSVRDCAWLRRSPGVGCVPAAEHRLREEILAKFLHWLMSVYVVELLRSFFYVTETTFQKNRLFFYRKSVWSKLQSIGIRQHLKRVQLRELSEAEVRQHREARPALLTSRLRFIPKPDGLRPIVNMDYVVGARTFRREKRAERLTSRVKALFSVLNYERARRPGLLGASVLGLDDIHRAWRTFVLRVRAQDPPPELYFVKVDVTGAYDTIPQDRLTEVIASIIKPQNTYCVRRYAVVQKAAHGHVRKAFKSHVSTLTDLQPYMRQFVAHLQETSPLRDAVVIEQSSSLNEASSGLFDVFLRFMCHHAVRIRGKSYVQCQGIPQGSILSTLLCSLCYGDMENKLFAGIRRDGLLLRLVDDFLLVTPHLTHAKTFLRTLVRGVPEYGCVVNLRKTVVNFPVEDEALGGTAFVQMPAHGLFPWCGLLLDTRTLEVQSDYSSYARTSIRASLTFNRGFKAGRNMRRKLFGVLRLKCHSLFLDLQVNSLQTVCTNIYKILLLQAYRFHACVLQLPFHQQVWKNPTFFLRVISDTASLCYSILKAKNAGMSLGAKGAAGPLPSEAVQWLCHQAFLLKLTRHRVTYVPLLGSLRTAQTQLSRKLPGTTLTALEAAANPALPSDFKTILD

On to `O=[N+]([O-])c1cc(-c2c3nc(c(-c4ccc(Cl)c([N+](=O)[O-])c4)c4ccc([nH]4)c(-c4ccc(Cl)c([N+](=O)[O-])c4)c4nc(c(-c5ccc(Cl)c([N+](=O)[O-])c5)c5ccc2[nH]5)C=C4)C=C3)ccc1Cl` [Compound D13, 5,10,15,20-tetra-(4-chloro-3-nitrophenyl)porphine], for which, in series [1], the “% insoluble remark (solubility)” value was “insoluble”.
Consider `O=[N+]([O-])c1cccc(-c2c3nc(cc4ccc([nH]4)c(-c4cccc([N+](=O)[O-])c4)c4nc(cc5ccc2[nH]5)C=C4)C=C3)c1` [Compound D16], for which the “% insoluble remark (solubility)” value in [1] is “insoluble”.
Turning to `C[n+]1ccc(-c2c3nc(c(-c4cc[n+](C)cc4)c4ccc([n-]4)c(-c4cc[n+](C)cc4)c4nc(c(-c5cc[n+](C)cc5)c5ccc2[n-]5)C=C4)C=C3)cc1.[Cl-].[Cl-].[Cl-].[Cl-].[Pt+2]` [TMPyP4 PtII, Platinum(II)tetra(N-methyl-4-pyridyl)porphyrin chloride], the IC50 in series [2] is 136 ± 34.8 µM; in series [3] (read-out: Telomerase Inhibition), 15 µM; in [4] it was greater than 100 µM; in series [5], 42.2 µM; in series [6], 1360 µM; in series [9], 74.8 ± 31.9 µM. For the same compound, the IC50 in [10] is greater than 100 µM; in series [12] it was 104 µM; in [13] it was 262 µM; in series [14], 64.6 µM; in [15], 214 ± 49 µM; in [16], 434 ± 386 µM. Also, the IC50 in [18] was greater than 200 µM. Further, in [3] (25 µM), the “% Inhibition of telomerase” value turned out to be 69%. Besides, the “cell number and morphology of embryos” value in series [7] is “fewer cells, many very misshapen and variable in size relative to the controls”. For the same compound, in series [7], the “condensed chromosome length / chromosomal effects” value is listed as “Qualitatively similar results”. In series [7], the “differences from controls in embryos” value is “no definitive differences were seen”. Moreover, the “first signs of ciliary motility” value in [7] is reported as 9 h. The toxicity to embryos result in series [7] is on record as “generally non-toxic to the embryos”. Also, in series [8], the “effect on telomere shortening” value was “No detectable effects on telomere shortening”. In series [11], this compound came in with a CC50 of 11.6 µM. In addition, the “telomerase activity in intact MCF7 cells” value in [17] is recorded as “less potent inhibitor than TMPyP4”.
Take `C=CC1=C(C)c2cc3[nH]c(cc4nc(cc5[nH]c(cc1n2)c(C)c5C=C)C(C)=C4CCC(=O)OC)c(CCC(=O)OC)c3C` [Compound H17]: the inhibition at 25 µM in series [3] (setting [19]) was found to be 6%.
Regarding `CCC1=C(CC)c2cc3[nH]c(cc4nc(cc5[nH]c(cc1n2)c(CC)c5CC)C(CC)=C4CC)c(CC)c3CC` [Compound H1], the inhibition at 25 µM in series [3] (setting [19]) was found to be 12%.
On to `Nc1ccccc1-c1c2nc(c(-c3ccccc3N)c3ccc([nH]3)c(-c3ccccc3N)c3nc(c(-c4ccccc4N)c4ccc1[nH]4)C=C3)C=C2` [Compound B3, Tetra-(2-aminophenyl)porphyrin], for which, in series [3] (25 μM, Table 13), the inhibition at 25 µM turned out to be 3%.
Consider “Copper(II)tetra-N-methyl-tetrazaphthalocyanine [Compound D7]”, for which the “telomerase inhibition in words” value in [3] is listed as “only slight activity”.
With `C[n+]1cccc(-c2c3nc(c(-c4ccc[n+](C)c4)c4ccc([nH]4)c(-c4ccccc4)c4nc(c(-c5ccccc5)c5ccc2[nH]5)C=C4)C=C3)c1` [Compound B22], in series [3] (25 μM, Table 7), the inhibition at 25 µM came to 20%.
